Source: patent US5612217A, “Streptomyces sp. MA 7074 (ATCC 55605) used for microbial synthesis of HIV protease inhibitors” (Merck & Co., Inc., priority 1994, dated 1997)

Target: T1, HIV protease (Human immunodeficiency virus type 1 group M subtype B, UniProt P03366)
T1 construct: the protease expressed in Eschericia coli; made in house; host or cells: Escherichia coli
Assay: Assay for inhibition of microbial expressed HIV protease (in vitro, peptide substrate cleavage, HPLC)
Type: biochemical
Conditions: for % Potency Relative to Compound J, Based On Nominal Wt. / % Potency Relative to Compound J, Based on HPLC: IC50 of Compound J / IC50 of test compound x 100; for % Potency Relative to Compound J, Based On Nominal Wt.: dilution based on nominal weight; for % Potency Relative to Compound J, Based on HPLC: concentration checked by HPLC using J as standard
Experimental: Inhibition studies of the reaction of the protease expressed in Eschericia coli with a peptide substrate [Val-Ser-Gln-Asn-(betanapthyl)Ala-Pro-Ile-Val, 0.5 mg/mL at the time the reaction is initiated] were in 50 mM Na acetate, pH 5.5, at 30° C. for 1 hour. Various concentrations of inhibitor in 1.0 μl DMSO were added to 25 μl of the peptide solution in water. The reaction is initiated by the addition of 15 μl of 0.33 nM protease (0.11 ng) in a solution of 0.133M Na acetate pH 5.5 and 0.1% bovine serum albumin. The reaction was quenched with 160 μl of 5% phosphoric acid. Products of the reaction were separated by HPLC (VYDAC wide pore 5 cm C-18 reverse phase, acetonitrile gradient, 0.1% phosphoric acid). The extent of inhibition of the reaction was determined as IC50 from the peak heights of the products.
Seven Compound J bioconversion products were assayed for in vitro HIV protease inhibitory by the assay for inhibition of microbial expressed HIV Protease, protocol given above. Two of the bioconversion products were isolated from MA7074 incubations, Compounds B1 and F. The IC50 of the parent Compound J was divided by the IC50 of each test compound and multiplied by 100 in order to calculate the percent potency of each compound relative to J.
In some cases, the dilution of the test compound was based on nominal weight. In other cases, especially when the weight was less than 250 μg, the concentration was checked by HPLC using J as standard.

CC(C)(C)NC(=O)[C@@H]1CN(Cc2cccnc2)CCN1C[C@@H](O)C[C@@H](Cc1ccccc1)C(=O)N[C@H]1c2ccccc2[C@H](O)[C@H]1O [A]
% Potency Relative to Compound J, Based On Nominal Wt.: 27%

CC(C)(C)NC(=O)[C@@H]1CN(Cc2cccnc2)CCN1C[C@@H](O)C[C@@H](Cc1ccccc1)C(=O)N[C@H]1c2ccccc2[C@@H](O)[C@H]1O [Compound B1]
% Potency Relative to Compound J, Based on HPLC: 115%

CC(C)(C)NC(=O)[C@@H]1CN(Cc2cccnc2)CCN1C[C@@H](O)C[C@@H](Cc1ccccc1)C(=O)N[C@H]1c2ccccc2C(=O)[C@H]1O [Compound F]
% Potency Relative to Compound J, Based On Nominal Wt.: 16% | HIV-protease activity (in words) (qualitative statement, compared with Compound J where stated): less HIV-protease activity than Compound J

CC(C)(C)NC(=O)[C@@H]1CN(Cc2cccnc2)CCN1C[C@@H](O)C[C@@H](Cc1ccc(O)cc1)C(=O)N[C@H]1c2ccccc2C[C@H]1O [D]
% Potency Relative to Compound J, Based on HPLC: 31% | % Potency Relative to Compound J, Based On Nominal Wt.: 3.1%

CC(C)(C)NC(=O)[C@@H]1CN(Cc2ccc[n+]([O-])c2)CCN1C[C@@H](O)C[C@@H](Cc1ccccc1)C(=O)N[C@H]1c2ccccc2C[C@H]1O [E]
% Potency Relative to Compound J, Based On Nominal Wt.: 34%
